The test system of one assay is H3K9AC (HT1080 cells). Description: H3K9AC Sandwich ELISA Assay in HT1080 cells (KAT2A primary cell-based screening assay). Also noted: species or system Human. The procedure, abridged:
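Acetylated H3K9 quantified by luminescent sandwich ELISA (total H3 capture, H3K9ac detection) on HCl lysates of HT1080 cells. Cells had 24 h compound exposure at 37 °C, top concentration 10 µM, 10-point 3-fold series, 0.1% DMSO; IC50 from four-parameter fitting.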

The target in another assay is KAT2A (Homo sapiens (Human), UniProt Q92830). Description: KAT2A acetyltransferase biochemical assay (RapidFire mass spectrometry, AcCoA to CoA).
The test system of another assay is MM.1S cells. Nature of the assay: MM1.S 10 Day Proliferation Assay (CellTiter-Glo). The assay is classed as cell-based, Human. The procedure, abridged: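 MM.1S cells, 500/well in ultra-low-attachment plates, were pre-incubated 16 h, then exposed to a 10-point 1:3 dilution series (top 10 μM final, 0.1% DMSO) for 10 days at 37 °C, with compound-containing medium refreshed at day 5. Viability was read by CellTiter-Glo luminescence; IC50 came from four-parameter fit.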

Setting [1] is: read-out: KAT2A Ki at 1 μM AcCoA, 5 μM H3 1-21 peptide, 0.5 nM KAT2A, 90-minute reaction.
[2] abbreviates: Homo sapiens, HT-1080, H3K9AC sandwich ELISA.
The mark [3] stands for this setting: KAT2A Ki at 1 μM AcCoA, 5 μM H3 1-21 peptide, 0.5 nM KAT2A, 90-minute reaction.

The structures appear in SMILES notation. Read-outs that look alike come from different tables or passages of the source.

This is an account of results in patent publication US20250188030A1, “Biphenyl and Phenylpyridine Compounds” (Pfizer Inc., priority 2023, published 2025).

KAT2A, sequence (Q92830 whole entry): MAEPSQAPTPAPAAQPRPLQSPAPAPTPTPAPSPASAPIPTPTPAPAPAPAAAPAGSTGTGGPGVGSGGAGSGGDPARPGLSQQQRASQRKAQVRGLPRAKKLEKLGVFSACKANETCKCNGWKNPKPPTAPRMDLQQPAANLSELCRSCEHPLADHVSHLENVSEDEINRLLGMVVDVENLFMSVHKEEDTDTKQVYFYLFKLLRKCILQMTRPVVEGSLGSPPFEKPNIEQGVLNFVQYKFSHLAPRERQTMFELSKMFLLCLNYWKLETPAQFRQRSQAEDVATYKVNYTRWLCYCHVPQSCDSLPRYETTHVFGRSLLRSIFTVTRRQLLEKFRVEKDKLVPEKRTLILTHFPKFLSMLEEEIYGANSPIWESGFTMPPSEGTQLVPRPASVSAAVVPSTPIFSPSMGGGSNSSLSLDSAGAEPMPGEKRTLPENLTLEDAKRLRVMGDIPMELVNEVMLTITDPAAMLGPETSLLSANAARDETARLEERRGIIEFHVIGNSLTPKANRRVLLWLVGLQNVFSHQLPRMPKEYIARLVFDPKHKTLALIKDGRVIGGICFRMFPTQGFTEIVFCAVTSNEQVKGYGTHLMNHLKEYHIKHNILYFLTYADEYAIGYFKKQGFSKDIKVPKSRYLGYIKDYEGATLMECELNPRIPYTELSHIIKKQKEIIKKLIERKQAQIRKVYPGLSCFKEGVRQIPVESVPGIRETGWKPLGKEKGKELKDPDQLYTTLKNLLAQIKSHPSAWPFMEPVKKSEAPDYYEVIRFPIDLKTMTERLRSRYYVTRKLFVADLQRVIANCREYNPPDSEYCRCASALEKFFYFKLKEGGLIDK

With `C[C@@H](C(=O)O)c1nn(C)cc1-c1ccc(O[C@@H]2CC[C@@H](NC(=O)[C@]3(F)CNC4(CCC4)C3)C2)c(-c2cccc(F)c2C2CCC2)c1` (single isomer, unassigned) [Example J4], the IC50 in the assay with H3K9AC (HT1080 cells) (H3K9AC sandwich ELISA) came to 18.6 nM; with MM.1S cells (Homo sapiens, MM1.S, 240 h), 23.6 nM. For the same compound, the Ki at KAT2A (setting [1]) worked out at 0.3 nM.
On to `CC(C)(C(=O)NS(=O)(=O)C1CC1)c1ccc(O[C@@H]2CC[C@@H](NC(=O)[C@]3(F)CNC4(CCC4)C3)C2)c(-c2cccc(F)c2C2CCC2)c1` (single isomer, unassigned) [Example B12], for which the IC50 with H3K9AC (HT1080 cells) (setting [2]) turned out to be 1.4 nM; with MM.1S cells (Homo sapiens, MM1.S, 240 h) it was 14.1 nM. Besides, at KAT2A (setting [1]), the Ki was found to be 0.18 nM.
For the compound `CS(=O)(=O)NC(=O)Cc1ccc(O[C@@H]2CC[C@@H](NC(=O)C3(F)CNC4(CCCC4)C3)C2)c(-c2cccc(F)c2C2CCC2)c1` (single isomer, unassigned) [Example B16], the IC50 in the assay on H3K9AC (HT1080 cells) (setting [2]) came to 2.68 nM; in the assay with MM.1S cells (Homo sapiens, MM1.S, 240 h), 11.6 nM. The compound also showed a Ki at KAT2A (setting [3]) of 0.08 nM.
`O=C(O)Cc1ccc(OC[C@H]2C[C@H](NC(=O)[C@@]3(F)CNC4(CCC4)C3)C2)c(-c2cccc(F)c2C2CCC2)c1` (single isomer, unassigned) [Example F3, (2′-cyclobutyl-3′-fluoro-6-{[(1r,3r)-3-{[(7ξ)-7-fluoro-5-azaspiro[3.4]octane-7-carbonyl]amino}cyclobutyl]methoxy}[1,1′-biphenyl]-3-yl)acetic acid]: the IC50 with H3K9AC (HT1080 cells) (setting [2]) stood at 8.5 nM; in the assay on MM.1S cells (Homo sapiens, MM1.S, 240 h) it was 94.5 nM. Besides, on KAT2A (setting [1]), the Ki was determined as 2.48 nM.
As to `CN1CC(C)(C)C[C@H]1C(=O)N[C@@H]1CC[C@@H](Oc2cccc(CC(=O)NS(C)(=O)=O)c2-c2ccccc2C2CCC2)C1` (atropisomer, axis not shown) [Example I4, N-[(1R,3R)-3-{[(1ψ)-2′-cyclobutyl-6-{2-[(methanesulfonyl)amino]-2-oxoethyl}[1,1′-biphenyl]-2-yl]oxy}cyclopentyl]-1,4,4-trimethyl-L-prolinamide], the IC50 in the assay on H3K9AC (HT1080 cells) (H3K9AC sandwich ELISA) stood at 23.2 nM; in the assay on MM.1S cells (Homo sapiens, MM1.S, 240 h), 249 nM. Moreover, the Ki on KAT2A (setting [1]) stood at 24.2 nM.
As to `CCS(=O)(=O)NC(=O)C(C)(C)c1ccc(O[C@@H]2CC[C@@H](NC(=O)[C@@]3(F)CNC(C)(C)C3)C2)c(-c2cccc(F)c2C2CCC2)c1` (single isomer, unassigned) [Example B14], the IC50 with H3K9AC (HT1080 cells) (H3K9AC sandwich ELISA) is 49.1 nM; in the assay with MM.1S cells, 553 nM. Further, the Ki at KAT2A (setting [1]) was determined as 1.83 nM.
In the case of `CCc1c(F)cccc1-c1cc(CC(=O)NS(=O)(=O)C2(C)CC2)ccc1O[C@@H]1CC[C@@H](NC(=O)[C@@]2(F)CNC3(CCCC3)C2)C1` (single isomer, unassigned) [Example C50], the IC50 in the assay on H3K9AC (HT1080 cells) (setting [2]) worked out at 0.6 nM; with MM.1S cells (Homo sapiens, MM1.S, 240 h), 1.4 nM. For the same compound, the Ki at KAT2A (setting [1]) stood at 0.19 nM.
Turning to `CN1CC2(CCCC2)C[C@H]1C(=O)N[C@@H]1CC[C@@H](Oc2cccc(C(=O)NS(C)(=O)=O)c2-c2cccc(F)c2C2CCC2)C1` (atropisomer, axis not shown) [Example I10, (3ξ)-N-[(1R,3R)-3-({(1ψ)-2′-cyclobutyl-3′-fluoro-6-[(methanesulfonyl)carbamoyl][1,1′-biphenyl]-2-yl}oxy)cyclopentyl]-2-methyl-2-azaspiro[4.4]nonane-3-carboxamide], the IC50 is 63.8 nM with H3K9AC (HT1080 cells) (setting [2]) and 359 nM in the assay on MM.1S cells (Homo sapiens, MM1.S, 240 h). In addition, the Ki on KAT2A (setting [1]) turned out to be 6.29 nM.
For `CN1CC(C)(C)C[C@H]1C(=O)N[C@H]1C[C@H](COc2ccc(CC(=O)O)cc2-c2cccc(F)c2C2CCC2)C1` [Example F1, [2′-cyclobutyl-3′-fluoro-6-({(1S,3r)-3-[(1,4,4-trimethyl-L-prolyl)amino]cyclobutyl}methoxy)[1,1′-biphenyl]-3-yl]acetic acid], the IC50 in the assay with H3K9AC (HT1080 cells) (setting [2]) was 41.5 nM; in the assay with MM.1S cells (Homo sapiens, MM1.S, 240 h), 125 nM. At KAT2A (setting [1]), the Ki was found to be 12.9 nM.
As for `CCS(=O)(=O)NC(=O)Cc1ccc(O[C@@H]2CC[C@@H](NC(=O)C3(F)CNCC4(CCC4)C3)C2)c(-c2cccc(F)c2C2CCC2)c1` (single isomer, unassigned) [Example C60], the IC50 was found to be 3.2 nM in the assay with H3K9AC (HT1080 cells) (H3K9AC sandwich ELISA) and 5 nM with MM.1S cells (Homo sapiens, MM1.S, 240 h). For the same compound, the inhibitory constant (Ki) on KAT2A (setting [1]) was 0.04 nM.
Take `CC(C)c1c(F)cccc1-c1cc(C(C)(C)C(=O)NS(=O)(=O)C2(C)CC2)ccc1O[C@@H]1CC[C@@H](NC(=O)[C@@]2(F)CNC3(CCC3)C2)C1` (single isomer, unassigned) [Example C43]: the IC50 in the assay with H3K9AC (HT1080 cells) (setting [2]) is 2.8 nM; with MM.1S cells (Homo sapiens, MM1.S, 240 h) it was 4.2 nM. Moreover, the Ki at KAT2A (setting [1]) was determined as 0.06 nM.
The corresponding values for `CC(C)(C(=O)NS(=O)(=O)C1CC1)c1ccc(O[C@@H]2CC[C@@H](NC(=O)[C@@]3(F)CNC4(CCCC4)C3)C2)c(-c2cccc(F)c2C2CCC2)c1` (single isomer, unassigned) [Example B26] are 2.2 nM, 7.4 nM and 0.06 nM.
As to `CC(C)c1ccccc1-c1cc(CC(=O)NS(=O)(=O)C2(C)CC2)ccc1O[C@@H]1CC[C@@H](NC(=O)[C@@]2(F)CNC3(CCC3)C2)C1` [Example C54, (7S)-7-fluoro-N-[(1R,3R)-3-({5-[2-(1-methylcyclopropane-1-sulfonamido)-2-oxoethyl]-2′-(propan-2-yl)[1,1′-biphenyl]-2-yl}oxy)cyclopentyl]-5-azaspiro[3.4]octane-7-carboxamide], the IC50 in the assay on H3K9AC (HT1080 cells) (setting [2]) came out at 0.9 nM; in the assay with MM.1S cells (Homo sapiens, MM1.S, 240 h), 1.4 nM. On KAT2A (setting [1]), the inhibition constant Ki was 0.04 nM.
Regarding `CC1(C)C[C@@](F)(C(=O)N[C@@H]2CC[C@@H](Oc3ccc(C(=O)O)cc3-c3cccc(F)c3C3CCC3)C2)CN1` (single isomer, unassigned) [Example A14], the IC50 in the assay on H3K9AC (HT1080 cells) (H3K9AC sandwich ELISA) came out at 4.88 nM; in the assay on MM.1S cells (Homo sapiens, MM1.S, 240 h), 157 nM. The inhibitory constant (Ki) at KAT2A (setting [1]) was determined as 1.32 nM.
As for `CN1CC(C)(C)C[C@H]1C(=O)N[C@@H]1CC[C@@H](Oc2cccc(C(=O)NS(=O)(=O)N3CCC3)c2-c2cccc(F)c2C2CCC2)C1` (atropisomer, axis not shown) [Example I13, N-[(1R,3R)-3-({(1ψ)-6-[(azetidine-1-sulfonyl)carbamoyl]-2′-cyclobutyl-3′-fluoro[1,1′-biphenyl]-2-yl}oxy)cyclopentyl]-1,4,4-trimethyl-L-prolinamide], the IC50 was 24.5 nM with H3K9AC (HT1080 cells) (setting [2]) and 238 nM with MM.1S cells (Homo sapiens, MM1.S, 240 h). For the same compound, at KAT2A (setting [1]), the Ki amounted to 25 nM.
Turning to `CN1C[C@](F)(C(=O)N[C@@H]2CC[C@@H](Oc3ccc(C(C)(C)C(=O)NS(C)(=O)=O)cc3-c3cccc(F)c3C3CCC3)C2)CC1(C)C` (single isomer, unassigned) [Example B7], the IC50 in the assay on H3K9AC (HT1080 cells) (setting [2]) came out at 20.9 nM; with MM.1S cells (Homo sapiens, MM1.S, 240 h) it was 102 nM. For the same compound, the Ki at KAT2A (setting [1]) came to 3.78 nM.
With `CC(C)n1cc(-c2ccc(O[C@@H]3CC[C@@H](NC(=O)[C@@]4(F)CNC5(CCC5)C4)C3)c(-c3cccc(F)c3C3CCC3)c2)c(C(=O)O)n1` (single isomer, unassigned) [Example J16], the IC50 with H3K9AC (HT1080 cells) (H3K9AC sandwich ELISA) was found to be 4.97 nM; in the assay with MM.1S cells (Homo sapiens, MM1.S, 240 h), 34.2 nM. Further, at KAT2A (setting [1]), the Ki turned out to be 0.08 nM.
For `CCS(=O)(=O)NC(=O)Cc1ccc(O[C@@H]2CC[C@@H](NC(=O)[C@@]3(F)CNC4(CCCC4)C3)C2)c(-c2ccccc2C(C)C)c1` (single isomer, unassigned) [Example C63], the IC50 in the assay with H3K9AC (HT1080 cells) (setting [2]) came to 2.2 nM; in the assay with MM.1S cells (Homo sapiens, MM1.S, 240 h), 5.2 nM. For the same compound, the Ki on KAT2A (setting [1]) is 0.08 nM.
The corresponding values for `CC(C)(C(=O)NS(=O)(=O)N1CC(F)C1)c1ccc(O[C@@H]2CC[C@@H](NC(=O)[C@@]3(F)CNC4(CCC4)C3)C2)c(-c2cccc(F)c2C2CCC2)c1` (single isomer, unassigned) [Example B5] are 9.93 nM, 13.3 nM and 0.09 nM.
`CS(=O)(=O)NC(=O)Cc1ccc(O[C@@H]2CC[C@@H](NC(=O)[C@]3(F)CNC4(CCC4)C3)C2)c(-c2cccc(F)c2C2CCC2)c1` (single isomer, unassigned) [Example C38]: the IC50 in the assay on H3K9AC (HT1080 cells) (setting [2]) turned out to be 6.1 nM; in the assay on MM.1S cells (Homo sapiens, MM1.S, 240 h), 10.2 nM. On KAT2A (setting [3]), this compound displayed a Ki of 0.09 nM.
On to `CC1(S(=O)(=O)NC(=O)Cc2ccc(O[C@@H]3CC[C@@H](NC(=O)[C@@]4(F)CNC5(CCC5)C4)C3)c(-c3cccc(F)c3C3CCC3)c2)CC1` [Example B35, (7ξ)-N-[(1R,3R)-3-({2′-cyclobutyl-3′-fluoro-5-[2-(1-methylcyclopropane-1-sulfonamido)-2-oxoethyl][1,1′-biphenyl]-2-yl}oxy)cyclopentyl]-7-fluoro-5-azaspiro[3.4]octane-7-carboxamide], for which the IC50 came to 0.6 nM in the assay with H3K9AC (HT1080 cells) (setting [2]) and 1.3 nM in the assay with MM.1S cells (Homo sapiens, MM1.S, 240 h). For the same compound, on KAT2A (setting [1]), the Ki is 0.04 nM.
Turning to `CN(C)S(=O)(=O)NC(=O)C(C)(C)c1ccc(O[C@@H]2CC[C@@H](NC(=O)[C@@]3(F)CNC4(CCC4)C3)C2)c(-c2cccc(F)c2C2CCC2)c1` [Example C2, (7S)-N-{(1R,3R)-3-[(2′-cyclobutyl-5-{1-[(dimethylsulfamoyl)amino]-2-methyl-1-oxopropan-2-yl}-3′-fluorobiphenyl-2-yl)oxy]cyclopentyl}-7-fluoro-5-azaspiro[3.4]octane-7-carboxamide], the IC50 was determined as 3.56 nM with H3K9AC (HT1080 cells) (setting [2]) and 5.37 nM with MM.1S cells (Homo sapiens, MM1.S, 240 h). Also, on KAT2A (setting [3]), affinity was put at a Ki of 0.05 nM.
For the compound `CCc1ccccc1-c1cc(CC(=O)NS(=O)(=O)C2(C)CC2)ccc1O[C@@H]1CC[C@@H](NC(=O)[C@@]2(F)CNC3(CCC3)C2)C1` [Example C51, (7S)-N-[(1R,3R)-3-({2′-ethyl-5-[2-(1-methylcyclopropane-1-sulfonamido)-2-oxoethyl][1,1′-biphenyl]-2-yl}oxy)cyclopentyl]-7-fluoro-5-azaspiro[3.4]octane-7-carboxamide], the IC50 with H3K9AC (HT1080 cells) (setting [2]) was found to be 3 nM; with MM.1S cells (Homo sapiens, MM1.S, 240 h) it was 4 nM. In addition, the Ki at KAT2A (setting [1]) is 0.4 nM.
